pIC50: −log10 of the molar value.
Test system: 876862-298-R-J1-PDC complex spheroids, viability % test/control
Experiment: Anticancer human tumor 876862-298-R-J1-PDC patient-derived endometrial carcinoma cell line growth inhibition [CLK]
Conditions: for pIC50: curve of first compound; for viability, T/C: stronger effect = lower value; active = viability on the fitted dose curve at most 10% of control; inactive = the rest
Procedure, shortened: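 Patient-derived tumor cells grown as complex spheroids with HUVEC endothelial cells and mesenchymal stem cells, treated with drug combinations. Concentrations descend in half-log steps from near clinical Cmax, or from 10 microM if Cmax unknown.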

[1] = second compound 0.0316 µM, first compound 0.0316 µM
[2] = second compound 0.0316 µM, first compound 0.1 µM
[3] = second compound 0.0316 µM, first compound 0.316 µM
[4] = second compound 0.0316 µM, first compound 1 µM
[5] = second compound 0.0316 µM, first compound 3.16 µM
[6] = second compound 0.0316 µM, first compound 10 µM
[7] = second compound 0.1 µM, first compound 0.0316 µM
[8] = second compound 0.1 µM, first compound 0.1 µM
[9] = second compound 0.1 µM, first compound 0.316 µM
[10] = second compound 0.1 µM, first compound 1 µM
[11] = second compound 0.1 µM, first compound 3.16 µM
[12] = second compound 0.1 µM, first compound 10 µM
[13] = second compound 0.316 µM, first compound 0.0316 µM
[14] = second compound 0.316 µM, first compound 0.1 µM
[15] = second compound 0.316 µM, first compound 0.316 µM
[16] = second compound 0.316 µM, first compound 1 µM
[17] = second compound 0.316 µM, first compound 3.16 µM
[18] = second compound 0.316 µM, first compound 10 µM
[19] = second compound 1 µM, first compound 0.0316 µM
[20] = second compound 1 µM, first compound 0.1 µM
[21] = second compound 1 µM, first compound 0.316 µM
[22] = second compound 1 µM, first compound 1 µM
[23] = second compound 1 µM, first compound 3.16 µM
[24] = second compound 1 µM, first compound 10 µM
[25] = second compound 3.16 µM, first compound 0.0316 µM
[26] = second compound 3.16 µM, first compound 0.1 µM
[27] = second compound 3.16 µM, first compound 0.316 µM
[28] = second compound 3.16 µM, first compound 1 µM
[29] = second compound 3.16 µM, first compound 3.16 µM
[30] = second compound 3.16 µM, first compound 10 µM
[31] = second compound 10 µM, first compound 0.0316 µM
[32] = second compound 10 µM, first compound 0.1 µM
[33] = second compound 10 µM, first compound 0.316 µM
[34] = second compound 10 µM, first compound 1 µM
[35] = second compound 10 µM, first compound 3.16 µM
[36] = second compound 10 µM, first compound 10 µM
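Note: spheroids exposed to drugs for 7 days before readout.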
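Throughout, for viability, T/C: 100% = DMSO vehicle control wells.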

Nc1ccn(C2OC(CO)C(O)C2(F)F)c(=O)n1 (centres undefined) + CN1CCN(c2cc(C(=O)Nc3cc4cc(-c5cnn(C)c5)ccc4cn3)ccn2)CC1
inactive: viability, T/C [1] 22.6% | viability, T/C [7] 13.8%
active: viability, T/C [2] 8.64% | viability, T/C [3] 6.4% | viability, T/C [4] 7.52% | viability, T/C [5] 6.95% | viability, T/C [6] 5.95% | viability, T/C [8] 8.73% | viability, T/C [9] 7.61% | viability, T/C [10] 7.32% | viability, T/C [11] 7.36% | viability, T/C [12] 6.15% | viability, T/C [13] 1.98% | viability, T/C [14] 2.23% | viability, T/C [15] 2.31% | viability, T/C [16] 2.07% | viability, T/C [17] 1.76% | viability, T/C [18] 1.74% | viability, T/C [19] 0.86% | viability, T/C [20] 0.6% | viability, T/C [21] 1.16% | viability, T/C [22] 0.96% | viability, T/C [23] 0.79% | viability, T/C [24] 0.99% | viability, T/C [25] 0.84% | viability, T/C [26] 0.93% | viability, T/C [27] 0.9% | viability, T/C [28] 0.86% | viability, T/C [29] 1.01% | viability, T/C [30] 0.93% | viability, T/C [31] 0.55% | viability, T/C [32] 0.43% | viability, T/C [33] 0.48% | viability, T/C [34] 0.64% | viability, T/C [35] 0.74% | viability, T/C [36] 0.72%
> 7.50: pIC50 (second compound 0.0316 µM) | pIC50 (second compound 0.1 µM) | pIC50 (second compound 0.316 µM) | pIC50 (second compound 1 µM) | pIC50 (second compound 3.16 µM) | pIC50 (second compound 10 µM)

O=C(c1cc(Cc2n[nH]c(=O)c3ccccc23)ccc1F)N1CCN(C(=O)C2CC2)CC1 + CN1CCN(c2cc(C(=O)Nc3cc4cc(-c5cnn(C)c5)ccc4cn3)ccn2)CC1
> 7.50: pIC50 (second compound 0.316 µM) | pIC50 (second compound 1 µM) | pIC50 (second compound 3.16 µM) | pIC50 (second compound 10 µM)
inactive: viability, T/C [1] 88.1% | viability, T/C [2] 95.5% | viability, T/C [3] 85.7% | viability, T/C [4] 94.9% | viability, T/C [5] 96.2% | viability, T/C [6] 74.6% | viability, T/C [7] 51.3% | viability, T/C [8] 50.5% | viability, T/C [9] 50.9% | viability, T/C [10] 50.6% | viability, T/C [11] 45% | viability, T/C [12] 35.2%
< 5.00: pIC50 (second compound 0.0316 µM)
6.20: pIC50 (second compound 0.1 µM)
active: viability, T/C [13] 2.72% | viability, T/C [14] 3.01% | viability, T/C [15] 2.89% | viability, T/C [16] 3.34% | viability, T/C [17] 3.07% | viability, T/C [18] 2.03% | viability, T/C [19] 0.78% | viability, T/C [20] 1.06% | viability, T/C [21] 0.79% | viability, T/C [22] 0.54% | viability, T/C [23] 0.67% | viability, T/C [24] 0.77% | viability, T/C [25] 1.02% | viability, T/C [26] 0.99% | viability, T/C [27] 1.13% | viability, T/C [28] 1.07% | viability, T/C [29] 2.34% | viability, T/C [30] 1.07% | viability, T/C [31] 0.83% | viability, T/C [32] 0.87% | viability, T/C [33] 0.89% | viability, T/C [34] 1.19% | viability, T/C [35] 1.06% | viability, T/C [36] 0.83%

From PubChem BioAssay AID2060607 (Molecular Pharmacology Branch, DTP, NCI, 2025)
